Assay results from ChEMBL document CHEMBL5725235, “3-cyclohexenyl and cyclohexyl substituted indole and indazole compounds as RORgammaT inhibitors and uses thereof” (2016).

Assay: TR-FRET Assay: To identify novel antagonists of RORgammaT, an assay was developed which employs the interaction of RORgammaT with its co-activator peptide SRC1_2. This peptide mimics the recruitment of co-activators to RORgammaT through its interaction with the LXXLL (SEQ ID NO:1) (e.g., NR box) motifs (Xie et al., J. Immunol. 175: 3800-09, 2005; Kurebayashi et al., Biochem. Biophys. Res. Commun. 315: 919-27, 2004; Jin et al., Mol. Endocrinology 24:923-29, 2010). The RORγ-Ligand Binding Domain TR-FRET Assay was run according to the following protocol.HIS-tagged RORγ-LBD protein was expressed in SF9 cells using a baculovirus expression system. The RORγ-LBD protein was purified by […] chromatography. Separately, SF9 cells not expressing any recombinant protein were lysed and the lysate was added to the purified RORγ-LBD at 0.25 ul lysate (from 10,000 SF9 cells)/nM purified protein. The mixture was then diluted in assay buffer (50 mM Tris pH 7.0, 50 mM KCl, 1 mM EDTA, 0.1 mM DTT) to obtain RORγ-LBD final concentration of 3 nM in 384-well assay plate. Compounds to be tested were injected to the assay plate using Acoustic Droplet Ejection technology by Echo 550 liquid handler (Labcyte, Calif.). A stock of biotinylated-LXXLL peptide from coactivator SRC1 (Biotin-[…]) (SEQ ID NO:2) was prepared in assay buffer and added to each well (100 nM final concentration). […]

CC1(C)CC(c2nn(C(=O)c3c(Cl)cccc3C(F)(F)F)c3cccc(F)c23)=CC[C@H]1C(=O)O gave an IC50 of 343 nM.

With CC1(C(=O)O)CC=C(c2nn(C(=O)c3c(Cl)cccc3C(F)(F)F)c3cccc(F)c23)CC1 (configuration not stated) the IC50 was 21 nM.
